The target of assay [1] is hGABABR1a/GABABR2 receptor (CHO membranes) (Homo sapiens, UniProt O75899+Q9UBS5). Kind of assay: GTPγ35S activation assay.
Procedure: (§1) Butyrate-stimulated (5 mM final) cells were scraped, after a short rinse with PBS, in 50 mM TrisHCl pH7.4 and centrifuged at 23500 g for 10 min. at 4° C. The pellet was homogenised in 5 mM TrisHCI pH 7.4 by Ultra-Turrax (24000 rpm) followed by centrifugation at 30000 g for 20 min. at 4° C. The resulting pellet was resuspended in 50 mM TrisHCl pH 7.4 and rehomogenised. Protein concentration was determined using the Bradford method.
Filters were rinsed 6 times with cold 10 mM phosphate buffer pH 7.4, and dried overnight before addition of 30 μl Microscint O, and measurement in Topcount (Packard, 1 min./well).
The target of assay [2] is hGABABR1a/R2 heterodimeric GABAB receptor (CHO membranes) (Homo sapiens, UniProt O75899+Q9UBS5). Kind of assay: biochemical.
Procedure: as §1
An agonist filter binding assay has been developed in 96-well GF/B filterplate.
In assay [3] the target is GABAB receptor expressed by the hGABABR1a/GABABR2 CHO cell line (Homo sapiens, UniProt O75899+Q9UBS5). As to conditions: 10 μM in saturation assay, FIGS. 4a, b.
Procedure: Agonist centrifugation Binding AssayIn an alternative binding assay the non-bound ligand was separated from the membranes by centrifugation instead of filtration. The assay was performed according to the earlier described filter binding assay, with the difference that the non-bound ligand was separated from the membranes by centrifugation in a microcentrifuge at 12500 rpm for 10 minutes. The supernatant was discarded, the pellet was rinsed with washing buffer and dissolved in 200 μl water.
In assay [4] the target is native GABAB receptor, Pig (Sus scrofa, UniProt A0A480I1B8). To be noted: Facklam & Bowery, 1993; cited from earlier work.
Assay [5] deals with T1, native GABAB receptor, Rat (Rattus norvegicus, UniProt Q9Z0U4).
T1 construct: host or cells: rat tissue preparations
To be noted: published results; cited from earlier work.

The values that follow come from patent publication US20060216749A1, “Chimeric gaba receptor” (priority 2003, published 2006).

pIC50, pKd: −log10 of the molar value.

Chain of hGABABR1a/R2 heterodimeric GABAB receptor (CHO membranes) (Q9UBS5 20-961): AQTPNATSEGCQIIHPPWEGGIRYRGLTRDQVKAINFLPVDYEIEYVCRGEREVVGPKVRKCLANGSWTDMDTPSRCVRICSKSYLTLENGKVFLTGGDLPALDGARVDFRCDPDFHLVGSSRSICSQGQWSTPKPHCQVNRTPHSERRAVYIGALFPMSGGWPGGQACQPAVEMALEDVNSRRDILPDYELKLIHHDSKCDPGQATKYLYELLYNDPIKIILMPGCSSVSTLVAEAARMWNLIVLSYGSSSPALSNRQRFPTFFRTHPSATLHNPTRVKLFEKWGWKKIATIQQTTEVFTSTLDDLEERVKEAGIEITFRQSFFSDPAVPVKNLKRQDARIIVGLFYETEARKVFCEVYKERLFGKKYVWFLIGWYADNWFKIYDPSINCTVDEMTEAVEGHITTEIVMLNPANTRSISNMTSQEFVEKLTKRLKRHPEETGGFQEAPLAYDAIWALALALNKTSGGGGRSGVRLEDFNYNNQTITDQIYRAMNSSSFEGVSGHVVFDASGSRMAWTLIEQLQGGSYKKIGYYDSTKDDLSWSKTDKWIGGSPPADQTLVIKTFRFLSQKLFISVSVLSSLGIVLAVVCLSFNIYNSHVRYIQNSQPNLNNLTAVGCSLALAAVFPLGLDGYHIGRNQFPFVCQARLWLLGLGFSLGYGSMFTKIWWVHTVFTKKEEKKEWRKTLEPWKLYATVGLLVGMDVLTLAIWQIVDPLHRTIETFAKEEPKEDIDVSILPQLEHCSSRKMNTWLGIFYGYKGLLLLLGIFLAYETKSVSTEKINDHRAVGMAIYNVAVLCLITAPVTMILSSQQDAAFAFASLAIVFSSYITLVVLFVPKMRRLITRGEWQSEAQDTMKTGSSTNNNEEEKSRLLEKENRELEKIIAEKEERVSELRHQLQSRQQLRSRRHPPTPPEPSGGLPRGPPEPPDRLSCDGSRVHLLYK
Chain of hGABABR1a/R2 heterodimeric GABAB receptor (CHO membranes) (O75899 42-941): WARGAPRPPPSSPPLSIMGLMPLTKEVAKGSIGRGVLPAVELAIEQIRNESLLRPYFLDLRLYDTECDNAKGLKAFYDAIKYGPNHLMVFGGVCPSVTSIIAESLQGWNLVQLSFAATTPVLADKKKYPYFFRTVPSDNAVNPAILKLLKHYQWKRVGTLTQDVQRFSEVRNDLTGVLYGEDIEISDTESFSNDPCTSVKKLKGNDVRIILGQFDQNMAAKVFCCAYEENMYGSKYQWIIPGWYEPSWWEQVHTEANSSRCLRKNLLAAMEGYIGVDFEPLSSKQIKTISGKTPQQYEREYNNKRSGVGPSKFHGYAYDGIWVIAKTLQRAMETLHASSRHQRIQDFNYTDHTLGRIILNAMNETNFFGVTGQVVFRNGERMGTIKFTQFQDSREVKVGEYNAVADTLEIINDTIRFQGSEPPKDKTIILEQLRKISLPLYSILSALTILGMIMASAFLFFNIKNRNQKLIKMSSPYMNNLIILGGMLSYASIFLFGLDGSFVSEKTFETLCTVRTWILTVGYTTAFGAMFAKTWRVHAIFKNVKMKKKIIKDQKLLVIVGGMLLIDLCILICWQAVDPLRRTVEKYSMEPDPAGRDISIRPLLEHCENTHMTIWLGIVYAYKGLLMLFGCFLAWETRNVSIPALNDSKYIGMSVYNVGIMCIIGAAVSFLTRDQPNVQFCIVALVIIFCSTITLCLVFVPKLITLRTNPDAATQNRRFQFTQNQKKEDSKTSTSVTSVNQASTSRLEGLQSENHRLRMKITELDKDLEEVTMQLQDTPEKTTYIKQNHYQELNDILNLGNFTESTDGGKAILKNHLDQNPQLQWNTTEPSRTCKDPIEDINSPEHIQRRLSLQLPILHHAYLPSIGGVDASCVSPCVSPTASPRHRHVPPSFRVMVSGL
Chain of hGABABR1a/GABABR2 receptor (CHO membranes) (Q9UBS5 20-961): as the sequence (Q9UBS5 20-961) above
Chain of hGABABR1a/GABABR2 receptor (CHO membranes) (O75899 42-941): as the sequence (O75899 42-941) above
Chain of native GABAB receptor, Pig (A0A480I1B8 1-960): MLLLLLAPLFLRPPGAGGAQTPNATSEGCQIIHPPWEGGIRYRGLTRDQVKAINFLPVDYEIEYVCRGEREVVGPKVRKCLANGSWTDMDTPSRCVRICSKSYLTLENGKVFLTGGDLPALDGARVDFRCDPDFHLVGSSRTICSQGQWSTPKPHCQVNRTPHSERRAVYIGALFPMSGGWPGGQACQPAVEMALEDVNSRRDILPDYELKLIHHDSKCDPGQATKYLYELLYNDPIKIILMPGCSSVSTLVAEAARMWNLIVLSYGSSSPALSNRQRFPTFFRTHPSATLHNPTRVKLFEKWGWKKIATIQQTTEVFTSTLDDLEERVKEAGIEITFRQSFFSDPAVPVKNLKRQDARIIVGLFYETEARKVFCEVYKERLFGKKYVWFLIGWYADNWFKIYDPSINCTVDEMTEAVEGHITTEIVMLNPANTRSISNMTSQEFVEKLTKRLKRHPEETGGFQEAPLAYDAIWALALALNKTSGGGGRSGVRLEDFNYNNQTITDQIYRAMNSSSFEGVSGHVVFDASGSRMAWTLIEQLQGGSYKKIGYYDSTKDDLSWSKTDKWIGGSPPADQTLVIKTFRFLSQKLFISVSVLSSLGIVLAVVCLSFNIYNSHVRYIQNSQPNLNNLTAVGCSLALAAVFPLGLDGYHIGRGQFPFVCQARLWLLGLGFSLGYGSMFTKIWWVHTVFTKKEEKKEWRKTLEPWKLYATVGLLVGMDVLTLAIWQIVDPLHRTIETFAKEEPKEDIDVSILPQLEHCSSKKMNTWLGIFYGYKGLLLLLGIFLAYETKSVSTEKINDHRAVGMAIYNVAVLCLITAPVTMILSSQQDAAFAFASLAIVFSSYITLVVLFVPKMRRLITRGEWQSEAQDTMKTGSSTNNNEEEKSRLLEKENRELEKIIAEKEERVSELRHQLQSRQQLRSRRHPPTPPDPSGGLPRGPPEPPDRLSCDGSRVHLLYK
Chain of GABAB receptor expressed by the hGABABR1a/GABABR2 CHO cell line (Q9UBS5 20-961): as the sequence (Q9UBS5 20-961) above
Chain of GABAB receptor expressed by the hGABABR1a/GABABR2 CHO cell line (O75899 42-941): as the sequence (O75899 42-941) above
T1 sequence (Q9Z0U4 20-960): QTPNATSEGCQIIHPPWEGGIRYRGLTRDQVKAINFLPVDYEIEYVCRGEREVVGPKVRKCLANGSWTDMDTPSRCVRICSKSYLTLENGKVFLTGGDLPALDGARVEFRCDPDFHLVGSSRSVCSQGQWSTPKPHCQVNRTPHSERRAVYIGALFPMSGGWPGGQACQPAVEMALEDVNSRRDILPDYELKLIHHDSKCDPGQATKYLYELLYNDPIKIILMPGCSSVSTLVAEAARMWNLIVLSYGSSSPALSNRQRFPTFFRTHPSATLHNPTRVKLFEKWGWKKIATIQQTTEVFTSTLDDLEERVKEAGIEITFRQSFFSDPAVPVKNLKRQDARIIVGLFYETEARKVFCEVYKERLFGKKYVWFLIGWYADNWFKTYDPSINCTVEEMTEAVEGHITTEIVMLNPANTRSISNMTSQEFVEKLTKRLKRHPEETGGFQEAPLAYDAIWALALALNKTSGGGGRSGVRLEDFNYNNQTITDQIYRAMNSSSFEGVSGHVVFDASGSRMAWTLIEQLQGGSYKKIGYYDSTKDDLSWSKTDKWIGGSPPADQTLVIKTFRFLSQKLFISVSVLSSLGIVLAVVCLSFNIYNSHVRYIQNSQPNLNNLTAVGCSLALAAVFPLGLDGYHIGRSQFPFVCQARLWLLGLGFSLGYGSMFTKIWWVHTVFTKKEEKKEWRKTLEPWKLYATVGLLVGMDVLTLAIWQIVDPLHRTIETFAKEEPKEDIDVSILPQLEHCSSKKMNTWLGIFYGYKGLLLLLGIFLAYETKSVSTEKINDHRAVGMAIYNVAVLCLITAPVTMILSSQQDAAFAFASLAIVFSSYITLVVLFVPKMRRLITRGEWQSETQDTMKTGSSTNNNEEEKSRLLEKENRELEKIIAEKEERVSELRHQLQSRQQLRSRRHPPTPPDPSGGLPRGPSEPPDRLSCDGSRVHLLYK
T1 sequence (O88871 41-940 partner): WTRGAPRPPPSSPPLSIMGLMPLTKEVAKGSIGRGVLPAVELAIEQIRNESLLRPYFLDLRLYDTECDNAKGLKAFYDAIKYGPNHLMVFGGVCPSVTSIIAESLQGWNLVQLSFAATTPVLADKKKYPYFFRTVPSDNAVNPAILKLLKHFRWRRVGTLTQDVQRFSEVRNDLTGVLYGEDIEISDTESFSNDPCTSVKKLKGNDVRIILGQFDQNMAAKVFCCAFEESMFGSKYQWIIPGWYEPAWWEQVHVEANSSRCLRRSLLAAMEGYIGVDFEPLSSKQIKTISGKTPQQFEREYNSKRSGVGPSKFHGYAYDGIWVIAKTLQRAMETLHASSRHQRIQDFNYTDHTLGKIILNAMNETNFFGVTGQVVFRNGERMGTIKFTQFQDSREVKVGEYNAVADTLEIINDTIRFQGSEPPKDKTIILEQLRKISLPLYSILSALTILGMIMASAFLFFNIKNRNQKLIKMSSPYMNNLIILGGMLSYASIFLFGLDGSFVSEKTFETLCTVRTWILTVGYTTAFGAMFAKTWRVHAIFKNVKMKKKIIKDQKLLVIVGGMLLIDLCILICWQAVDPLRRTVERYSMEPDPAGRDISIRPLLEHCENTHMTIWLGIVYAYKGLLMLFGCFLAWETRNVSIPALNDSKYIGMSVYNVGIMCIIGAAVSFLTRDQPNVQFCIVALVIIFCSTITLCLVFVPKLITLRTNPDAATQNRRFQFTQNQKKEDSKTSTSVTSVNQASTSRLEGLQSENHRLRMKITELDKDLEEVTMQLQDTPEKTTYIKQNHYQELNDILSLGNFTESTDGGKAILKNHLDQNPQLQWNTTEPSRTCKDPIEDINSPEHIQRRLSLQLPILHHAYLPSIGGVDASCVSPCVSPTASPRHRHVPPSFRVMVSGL

Consider `CC1(C)CC2=Nc3c(N)ncnc3SC2=C(NCCCC(=O)O)C1`, for which, in assay [1], the “SIGNAL TRANSDUCTION GTPγS binding % Effect at 10 μM” value is recorded as 40.95%. Besides, the pIC50 in assay [2] is 6.82.

For the molecule `CC1(C)CC2=Nc3ccccc3SC2=C(NCCCC(=O)O)C1`, the “SIGNAL TRANSDUCTION GTPγS binding % Effect at 10 μM” value in assay [1] came out at 24.44%. For the same molecule, in assay [2], the pIC50 is 6.43.

`CC1(C)CC2=Nc3c(Cl)ncnc3SC2=C(NCCCC(=O)O)C1`: the “SIGNAL TRANSDUCTION GTPγS binding % Effect at 10 μM” value in assay [1] is given as 61.93%. Also, the pIC50 in assay [2] was 6.87.

As to `CC(C)(CO)Cc1cc(C(C)(C)C)c(O)c(C(C)(C)C)c1` [CGP7930, reference compound], in assay [1] (positive modulator, FIG. 1), the “effect on GABA-stimulated GTPγ35S binding” value was “potentiated”.

As to `C[C@H](NC[C@H](O)CP(=O)(O)CC1CCCCC1)c1ccc(Cl)c(Cl)c1` [CGP54626, reference compound], the “effect on 3H-GABA binding to both the high and the low affinity site” value in assay [3] is listed as “blocked”.

As to `C[C@H](NC[C@H](O)CP(=O)(O)CC1CCCCC1)c1ccc(Cl)c(Cl)c1` [^3H-CGP54626], the pKd in assay [4] is 8.87; in assay [5] it was 8.82.

Regarding `NCCCC(=O)O` [^3H-GABA], in assay [4], the pKd was 7.59.

Regarding `CN(C)c1ncnc2c1N=C1CC(C)(C)CC(NCCCC(=O)O)=C1S2` [compound 1], the “effect on 3H-GABA binding to both the high and the low affinity site” value in assay [3] is “blocked”.

As for `CN(C)c1ncnc2c1N=C1CC(C)(C)CC(NCCCC(=O)O)=C1S2` [drawing 15], the “SIGNAL TRANSDUCTION GTPγS binding % Effect at 10 μM” value in assay [1] is given as 45.7275%. In assay [2], the negative-log IC50 (pIC50) was 7.19.
